The values that follow come from patent publication US20070110758A1, “Method for inhibiting bacterial colonisation” (ADELAIDE RESERCH & INNOVATION PTY LTD, priority 2003, published 2007).

The test system of the assay is H. pylori. Description: Level of H. pylori colonisation in gastric body, transitional zone and antrum of inoculated mice, counted on Giemsa stained sections. As to conditions: Example 6; N-acetyl cysteine alone; FIGS. 3, 4. In kind it is in vivo, Helicobacter pylori. Here is the method:
Female C57BL/6 mice, approximately six week old, were orally inoculated with Sydney strain 1 (SS1) of H. pylori (1.0×10^8 bacteria delivered in 0.1 ml of 0.9% (w/v) sodium chloride) according to Lee et al., (1997) Gastroenterology 112:1386-1397 (the entire disclosure of which is incorporated herein by reference) and treated twice daily by oro-gastric gavage for 21 days, starting 4 weeks after inoculation (Scheme 1 below). Animals were housed in the Animal House at the Women's and Children's Hospital. All animals were fed mouse chow and water ad libitum. [drawing 1] […]
The level of colonisation in the gastric body, transitional zone and antrum of mice inoculated with H. pylori was counted in 9-12 consecutive fields on Giemsa stained sections.
To assess the effect of the mucolytic agent N-acetyl cysteine […] on colonisation, the level of colonisation in the gastric body, transitional zone and antrum in mice inoculated with H. pylori was counted in 9-12 consecutive fields on Giemsa stained sections.
The level of colonisation in the gastric body, transitional zone and antrum in mice inoculated with H. pylori was counted in 9-12 consecutive fields on Giemsa stained sections.
Colonisation (Giemsa staining): The level of colonisation in the gastric body, transitional zone and antrum was counted in 9-12 consecutive fields on stained sections. […]

Each structure is given as a SMILES string.

In the case of `CC(=O)N[C@@H](CS)C(=O)O` [NAC, N-acetyl cysteine], the level of colonisation result is on record as “no effect”.
